Results reported in patent publication US20250002527A1, “STEROID COMPOUND AND CONJUGATE THEREOF” (DUALITY BIOLOGICS (SUZHOU) CO., LTD., priority 2021, published 2025).
Values joined by “and” are separate entries in the source; they are usually repeats but may differ in a detail not shown here. Equal values may be shown once.

Assays:
Format in all cases: cell-based
ERα = molecular target: T1, ERα (Homo sapiens, UniProt P03372); experiment: ERα luciferase reporter gene experiment; conditions: HEK293 transfected with pBIND-ERα
T1 sequence (P03372 311-547 limits assumed): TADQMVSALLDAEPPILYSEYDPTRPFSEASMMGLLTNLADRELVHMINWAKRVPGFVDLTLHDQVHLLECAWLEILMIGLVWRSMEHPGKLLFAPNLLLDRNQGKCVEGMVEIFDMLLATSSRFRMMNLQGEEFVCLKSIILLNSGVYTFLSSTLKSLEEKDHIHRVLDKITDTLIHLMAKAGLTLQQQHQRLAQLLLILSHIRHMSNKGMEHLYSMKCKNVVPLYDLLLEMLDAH
Description: (§1) HEK293 cells were cultured in DMEM+10% FBS medium in a carbon dioxide incubator humidified at 37° C. at 5% carbon dioxide.
(§2) • 1) HEK293 cells were trypsinized, and the HEK293 cell resuspension was adjusted to 200,000 cell/mL in medium (96 well plate: 100 μL/well). • 2) Transfection reagent mixtures were prepared according to the table below, mixed well and left at room temperature for 20 minutes.
(§3) • 3) The prepared transfection mixtures were added to 10 mL of the cell density-adjusted resuspension, mixed well by turning the mixtures upside down, and seeded into a 96-well plate at a volume of 100 μL/well. • 4) The 96-well plate was incubated in a humidified incubator at 37° C. and 5% carbon dioxide for 24 hours.
(§4) The test plate was detected using the Dual-Glo Luciferase Assay System kit from Promega, and the fluorescence signal of Firefly Luciferase and the fluorescence signal of Renilla Luciferase were read using Enspire, respectively.
(§5) Y is the agonism and X is the concentration of the compound.

MR = molecular target: T2, MR (Homo sapiens, UniProt P08235); experiment: MR luciferase reporter gene experiment; conditions: HEK293 transfected with pBIND-MR
T2 construct: expressed in transfected cells; host or cells: HEK293
T2 sequence (P08235 1-984): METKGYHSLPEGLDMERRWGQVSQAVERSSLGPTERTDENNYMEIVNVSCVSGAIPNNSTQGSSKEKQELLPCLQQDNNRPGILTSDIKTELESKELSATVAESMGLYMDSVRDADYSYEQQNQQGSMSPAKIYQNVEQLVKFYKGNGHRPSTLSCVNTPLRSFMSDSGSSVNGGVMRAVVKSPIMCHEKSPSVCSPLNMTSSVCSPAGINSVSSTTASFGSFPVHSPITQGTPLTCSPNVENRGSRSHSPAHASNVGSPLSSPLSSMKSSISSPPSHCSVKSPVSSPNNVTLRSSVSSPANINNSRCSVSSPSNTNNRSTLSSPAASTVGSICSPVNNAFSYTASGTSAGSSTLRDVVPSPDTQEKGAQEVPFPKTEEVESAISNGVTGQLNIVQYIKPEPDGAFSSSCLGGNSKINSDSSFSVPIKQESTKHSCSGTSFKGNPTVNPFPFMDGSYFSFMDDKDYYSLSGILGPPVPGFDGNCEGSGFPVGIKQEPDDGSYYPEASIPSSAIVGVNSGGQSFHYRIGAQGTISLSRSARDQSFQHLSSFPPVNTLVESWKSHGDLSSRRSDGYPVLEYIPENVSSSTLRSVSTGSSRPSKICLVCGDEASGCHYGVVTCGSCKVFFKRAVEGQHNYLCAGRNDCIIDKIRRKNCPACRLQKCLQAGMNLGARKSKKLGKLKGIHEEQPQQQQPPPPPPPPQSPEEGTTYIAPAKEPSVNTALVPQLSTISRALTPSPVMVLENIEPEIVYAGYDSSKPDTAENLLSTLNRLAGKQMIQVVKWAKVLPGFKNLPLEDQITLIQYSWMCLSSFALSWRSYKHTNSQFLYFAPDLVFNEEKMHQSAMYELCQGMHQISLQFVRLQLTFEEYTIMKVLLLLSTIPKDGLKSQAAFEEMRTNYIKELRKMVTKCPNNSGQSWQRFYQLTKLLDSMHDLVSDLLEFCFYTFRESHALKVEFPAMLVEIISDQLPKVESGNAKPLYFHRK
Description: as §1, §2, §3, §4, §5

glucocorticoid receptor = molecular target: T3, glucocorticoid receptor (Homo sapiens, UniProt P04150); experiment: Measurement 1 of glucocorticoid receptor reporter gene GRE activity; conditions: HEK293 transfected with pGL5 and pBIND-GR, 24 hours
T3 construct: expressed in transfected cells; host or cells: HEK293
T3 sequence (P04150 1-777): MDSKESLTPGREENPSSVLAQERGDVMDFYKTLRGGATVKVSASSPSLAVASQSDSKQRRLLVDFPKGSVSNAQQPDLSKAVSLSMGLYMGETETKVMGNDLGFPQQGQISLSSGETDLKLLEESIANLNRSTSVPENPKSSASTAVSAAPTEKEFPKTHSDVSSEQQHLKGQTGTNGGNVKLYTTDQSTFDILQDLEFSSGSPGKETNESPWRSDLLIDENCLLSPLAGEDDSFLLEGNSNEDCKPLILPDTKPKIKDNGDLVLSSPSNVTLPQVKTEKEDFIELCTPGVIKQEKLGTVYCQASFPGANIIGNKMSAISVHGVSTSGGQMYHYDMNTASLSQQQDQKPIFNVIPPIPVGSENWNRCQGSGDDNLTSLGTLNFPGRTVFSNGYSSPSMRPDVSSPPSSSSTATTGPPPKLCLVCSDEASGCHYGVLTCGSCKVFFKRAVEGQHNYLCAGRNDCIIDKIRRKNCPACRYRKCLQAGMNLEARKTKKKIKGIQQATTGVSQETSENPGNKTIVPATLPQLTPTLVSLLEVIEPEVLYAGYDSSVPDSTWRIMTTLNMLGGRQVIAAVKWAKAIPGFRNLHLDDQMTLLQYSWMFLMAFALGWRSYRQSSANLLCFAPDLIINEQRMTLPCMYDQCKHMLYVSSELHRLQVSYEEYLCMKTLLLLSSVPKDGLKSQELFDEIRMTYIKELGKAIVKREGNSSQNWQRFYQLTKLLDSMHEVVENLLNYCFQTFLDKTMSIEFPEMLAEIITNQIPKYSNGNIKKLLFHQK
Description: as §1
The prepared transfection mixtures were added to 10 mL of the cell density-adjusted resuspension, mixed well by turning the mixtures upside down, and seeded into a 96-well plate at a volume of 100 μL/well.
as §4
The final measurement value was a normalized value “F/R” obtained by dividing the Firefly Luciferase fluorescent signal by the Renilla Luciferase fluorescent signal.
The data were copied and pasted into Excel, and the activation rate was obtained through an equation.
The data were imported into MS Excel and subjected to curve fitting by using XLFit excel add-in version 5.4.0.8 to obtain an EC50 value.
as §5

GR = molecular target: T4, GR (Homo sapiens, UniProt P04150); experiment: GR luciferase reporter gene elution experiment; parameters: concentration or dose not given beside the values; conditions: then 24 hours
T4 construct: expressed in transfected cells; host or cells: HEK293
T4 sequence (P04150 1-777): T3 sequence (P04150 1-777)
Description: The compounds of the present application were evaluated for their ability to continue activation upon binding to GR.
as §1, §2, §3, §4
• 1) The final measurement value was a normalized value “F/R” obtained by dividing the Firefly Luciferase fluorescent signal by the Renilla Luciferase fluorescent signal. • 2) The data were copied and pasted into Excel, and the activation rate was obtained through an equation.
[formula] • 3) The data were imported into MS Excel and subjected to curve fitting by using XLFit excel add-in version 5.4.0.8 to obtain an EC50 value.
as §5

Q: For `C[C@]12C=CC(=O)C=C1CC[C@@H]1[C@@H]2[C@@H](O)C[C@@]2(C)[C@H]1C[C@H]1O[C@@H](c3ccc(Cc4ccc(CO)cc4)cc3)O[C@]12C(=O)CO` [Compound 4], which EC50 (ERα) is on record?
A: The EC50 was greater than 1000 nM.

Q: What about the EC50 (MR) of the same compound?
A: Its EC50 is greater than 1000 nM.

Q: And the EC50 (glucocorticoid receptor)?
A: Its EC50 is 0.04 nM.

Q: And the “Wash off time (Rate of activation %) 15 min” value (GR; wash off after 15 min)?
A: Its value is 127.6% and 129.6%.

Q: And the “Wash off time (Rate of activation %) 30 min” value (GR; wash off after 30 min)?
A: The value was 127.0% and 128.5%.

Q: And the “Wash off time (Rate of activation %) 1 h” value (GR; wash off after 1 h)?
A: The value was 164.6% and 106.6%.

Q: What about the “Wash off time (Rate of activation %) 2 h” value (GR; wash off after 2 h) of the same compound?
A: Its value is 131.3% and 124.8%.

Q: What about the “Wash off time (Rate of activation %) 4 h” value (GR; wash off after 4 h) of the same compound?
A: The value was 139.9% and 125.3%.
